Results from patent publication US6417233B1, “Ubiguinone-containing composition suitable for promoting enhanced intramitochondrial transportation of ubiguinones and methods of using same” (Sigma-Tau HealthScience S.p.A., priority 1998, dated 2002).

System: normal human photoreceptors cells
Test: In vitro study of photoreceptor membranes exposed to oxido-reductive stress
Format: cell-based
Conditions: exposure to strong electron donor substances; result in words
Description: The mitochondrial membranes are more basophilic, and they contain more unsaturated lipids than the disc membranes of the outer segments.

chlorpromazines was tested, and the disc membranes was “disrupted the disc membranes in dose dependent manner” and the “structure of mitochondrial membranes” value was “slighly altered”.
